Data: PubChem BioAssay AID2060897 (Molecular Pharmacology Branch, DTP, NCI, 2025)
pIC50: −log10 of the molar value.

Test system: 966289-007-R4-J1-PDC complex spheroid viability
Experiment: Anticancer human tumor 966289-007-R4-J1-PDC patient-derived pancreatic adenocarcinoma cell line growth inhibition [RAS]
Settings: for viability, T/C: stronger effect = lower value
Method in brief: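 Tumour cells grown as complex spheroids with HUVEC endothelial cells and mesenchymal stem cells, treated with RAS pathway inhibitor combinations. Each agent spans half-log steps from near clinical Cmax, or 10 microM where Cmax is unknown.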

[1] = curve of first compound, second compound 0.0316 µM
[2] = curve of first compound, second compound 0.1 µM
[3] = curve of first compound, second compound 0.316 µM
[4] = curve of first compound, second compound 1 µM
[5] = curve of first compound, second compound 3.16 µM
[6] = curve of first compound, second compound 10 µM
[7] = second compound 0.0316 µM, first compound 0.0316 µM
[8] = second compound 0.0316 µM, first compound 0.1 µM
[9] = second compound 0.0316 µM, first compound 0.316 µM
[10] = second compound 0.0316 µM, first compound 1 µM
[11] = second compound 0.0316 µM, first compound 3.16 µM
[12] = second compound 0.0316 µM, first compound 10 µM
[13] = second compound 0.1 µM, first compound 0.0316 µM
[14] = second compound 0.1 µM, first compound 0.1 µM
[15] = second compound 0.1 µM, first compound 0.316 µM
[16] = second compound 0.1 µM, first compound 1 µM
[17] = second compound 0.1 µM, first compound 3.16 µM
[18] = second compound 0.1 µM, first compound 10 µM
[19] = second compound 0.316 µM, first compound 0.0316 µM
[20] = second compound 0.316 µM, first compound 0.1 µM
[21] = second compound 0.316 µM, first compound 0.316 µM
[22] = second compound 0.316 µM, first compound 1 µM
[23] = second compound 0.316 µM, first compound 3.16 µM
[24] = second compound 0.316 µM, first compound 10 µM
[25] = second compound 1 µM, first compound 0.0316 µM
[26] = second compound 1 µM, first compound 0.1 µM
[27] = second compound 1 µM, first compound 0.316 µM
[28] = second compound 1 µM, first compound 1 µM
[29] = second compound 1 µM, first compound 3.16 µM
[30] = second compound 1 µM, first compound 10 µM
[31] = second compound 3.16 µM, first compound 0.0316 µM
[32] = second compound 3.16 µM, first compound 0.1 µM
[33] = second compound 3.16 µM, first compound 0.316 µM
[34] = second compound 3.16 µM, first compound 1 µM
[35] = second compound 3.16 µM, first compound 3.16 µM
[36] = second compound 3.16 µM, first compound 10 µM
[37] = second compound 10 µM, first compound 0.0316 µM
[38] = second compound 10 µM, first compound 0.1 µM
[39] = second compound 10 µM, first compound 0.316 µM
[40] = second compound 10 µM, first compound 1 µM
[41] = second compound 10 µM, first compound 3.16 µM
[42] = second compound 10 µM, first compound 10 µM
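Note: spheroids exposed to agents for one week before readout.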
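Throughout, for viability, T/C: percent viability relative to DMSO vehicle control wells as 100%.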

Compound: CCC(CC)c1cc(NC2CCC(N)C2)n2nccc2n1 (stereo not drawn) + C#Cc1c(F)ccc2cc(O)cc(-c3ncc4c(N5CC6CCC(C5)N6)nc(OCC56CCCN5CC(F)C6)nc4c3F)c12
- pIC50 [1]: 5.74
- pIC50 [2]: 5.73
- pIC50 [3]: 5.73
- pIC50 [4]: 5.73
- pIC50 [5]: 5.72
- pIC50 [6]: 5.74
- viability, T/C [7]: 99.4%
- viability, T/C [8]: 87.7%
- viability, T/C [9]: 97.2%
- viability, T/C [10]: 111%
- viability, T/C [11]: 2.83%
- viability, T/C [12]: 2.78%
- viability, T/C [13]: 91.1%
- viability, T/C [14]: 97.8%
- viability, T/C [15]: 106%
- viability, T/C [16]: 133%
- viability, T/C [17]: 2.38%
- viability, T/C [18]: 2.61%
- viability, T/C [19]: 93%
- viability, T/C [20]: 95.1%
- viability, T/C [21]: 106%
- viability, T/C [22]: 137%
- viability, T/C [23]: 2.97%
- viability, T/C [24]: 2.55%
- viability, T/C [25]: 90.4%
- viability, T/C [26]: 93.1%
- viability, T/C [27]: 116%
- viability, T/C [28]: 127%
- viability, T/C [29]: 2.97%
- viability, T/C [30]: 2.86%
- viability, T/C [31]: 100%
- viability, T/C [32]: 94.9%
- viability, T/C [33]: 116%
- viability, T/C [34]: 126%
- viability, T/C [35]: 2.6%
- viability, T/C [36]: 2.57%
- viability, T/C [37]: 86.1%
- viability, T/C [38]: 88.7%
- viability, T/C [39]: 111%
- viability, T/C [40]: 122%
- viability, T/C [41]: 0.62%
- viability, T/C [42]: 0.86%

Compound: C=CC(=O)Nc1cc(Nc2nccc(-c3cn(C)c4ccccc34)n2)c(OC)cc1N(C)CCN(C)C
- viability, T/C (compound 0.0316 µM): 100% [middle of 4 runs]
- pIC50 (curve of compound): < 6.00

Compound: C=CC(=O)Nc1cc(Nc2nccc(-c3cn(C)c4ccccc34)n2)c(OC)cc1N(C)CCN(C)C + C=CC(=O)N1CCN(c2nc(OCC3CCCN3C)nc3c(F)c(-c4nc(N)cc(C)c4C(F)(F)F)c(Cl)cc23)C(C)C1
- pIC50 (curve of first compound, second compound 0.00316 µM): < 6.00
- pIC50 (curve of first compound, second compound 0.01 µM): < 6.00
- pIC50 [1]: < 6.00
- pIC50 [2]: < 6.00
- pIC50 [3]: < 6.00
- pIC50 [4]: < 6.00
- viability, T/C (second compound 0.00316 µM, first compound 0.00316 µM): 102%
- viability, T/C (second compound 0.00316 µM, first compound 0.01 µM): 105%
- viability, T/C (second compound 0.00316 µM, first compound 0.0316 µM): 101%
- viability, T/C (second compound 0.00316 µM, first compound 0.1 µM): 104%
- viability, T/C (second compound 0.00316 µM, first compound 0.316 µM): 104%
- viability, T/C (second compound 0.00316 µM, first compound 1 µM): 71.7%
- viability, T/C (second compound 0.01 µM, first compound 0.00316 µM): 95.6%
- viability, T/C (second compound 0.01 µM, first compound 0.01 µM): 100%
- viability, T/C (second compound 0.01 µM, first compound 0.0316 µM): 85.5%
- viability, T/C (second compound 0.01 µM, first compound 0.1 µM): 97.7%
- viability, T/C (second compound 0.01 µM, first compound 0.316 µM): 97.9%
- viability, T/C (second compound 0.01 µM, first compound 1 µM): 71.8%
- viability, T/C (second compound 0.0316 µM, first compound 0.00316 µM): 105%
- viability, T/C (second compound 0.0316 µM, first compound 0.01 µM): 102%
- viability, T/C [7]: 97.9%
- viability, T/C [8]: 98.7%
- viability, T/C [9]: 97.3%
- viability, T/C [10]: 78.8%
- viability, T/C (second compound 0.1 µM, first compound 0.00316 µM): 117%
- viability, T/C (second compound 0.1 µM, first compound 0.01 µM): 103%
- viability, T/C [13]: 101%
- viability, T/C [14]: 97.4%
- viability, T/C [15]: 85.4%
- viability, T/C [16]: 83.9%
- viability, T/C (second compound 0.316 µM, first compound 0.00316 µM): 104%
- viability, T/C (second compound 0.316 µM, first compound 0.01 µM): 112%
- viability, T/C [19]: 118%
- viability, T/C [20]: 98.5%
- viability, T/C [21]: 84.6%
- viability, T/C [22]: 78.9%
- viability, T/C (second compound 1 µM, first compound 0.00316 µM): 102%
- viability, T/C (second compound 1 µM, first compound 0.01 µM): 95.5%
- viability, T/C [25]: 95.3%
- viability, T/C [26]: 100%
- viability, T/C [27]: 96%
- viability, T/C [28]: 67.6%

Compound: CC1(O)CCCC1n1c(=O)c(C(F)F)cc2cnc(NC3CCN(S(C)(=O)=O)CC3)nc21 (stereo not drawn) + C#Cc1c(F)ccc2cc(O)cc(-c3ncc4c(N5CC6CCC(C5)N6)nc(OCC56CCCN5CC(F)C6)nc4c3F)c12
- pIC50 [1]: 6.85
- pIC50 [2]: 6.74
- pIC50 [3]: 6.63
- pIC50 [4]: 6.66
- pIC50 [5]: 6.66
- pIC50 [6]: 6.94
- viability, T/C [7]: 138%
- viability, T/C [8]: 57%
- viability, T/C [9]: 28.4%
- viability, T/C [10]: 33.5%
- viability, T/C [11]: 32.1%
- viability, T/C [12]: 5.74%
- viability, T/C [13]: 124%
- viability, T/C [14]: 70.9%
- viability, T/C [15]: 26.7%
- viability, T/C [16]: 33.5%
- viability, T/C [17]: 27.7%
- viability, T/C [18]: 5.83%
- viability, T/C [19]: 128%
- viability, T/C [20]: 71.8%
- viability, T/C [21]: 33.9%
- viability, T/C [22]: 35.5%
- viability, T/C [23]: 31.4%
- viability, T/C [24]: 5.81%
- viability, T/C [25]: 116%
- viability, T/C [26]: 72.4%
- viability, T/C [27]: 30.1%
- viability, T/C [28]: 33%
- viability, T/C [29]: 33.2%
- viability, T/C [30]: 5.07%
- viability, T/C [31]: 128%
- viability, T/C [32]: 73.5%
- viability, T/C [33]: 30.6%
- viability, T/C [34]: 32.5%
- viability, T/C [35]: 33.3%
- viability, T/C [36]: 5.29%
- viability, T/C [37]: 106%
- viability, T/C [38]: 47.8%
- viability, T/C [39]: 33%
- viability, T/C [40]: 30.2%
- viability, T/C [41]: 38.3%
- viability, T/C [42]: 0.93%
